Consider 2 substances from paper PMC9875641, “Ophthalmic Solution of Smart Supramolecular Peptides to Capture Semaphorin 4D against Diabetic Retinopathy” (Advanced Science, 2022).

The data set is described as follows: TEM morphology and size of SSP nanostructures. Format: physicochemical. The conditions noted are these: for morphology after incubation with sSema4D: sSema4D 6 h, room temperature, mass ratio sSema4D/SSP 1/1000. Here is the method: TP-1 to TP-12, SSP-1 and SSP-2 […]
were purchased by GL Biochem (Shanghai) Ltd.
Preparation of peptide-based nanomaterials. SSP-1 or SSP-2 monomers were dissolved in artificial tears at a concentration of 4.0 mM and sonicated for 30 min, followed by quick injection into water at a volume ratio of 1:200 for artificial tears and H2O to obtain the nanomaterials solution (20 μM).
TEM for the morphology. The SSP-1 or SSP-2 solution with the concentration of 20 μM (10 μL) was placed dropwise onto a copper mesh for 5 min, then most of the liquid was removed through a filter paper. Uranyl acetate solution (10 μL) were employed to stain the samples for 5 min, followed by drying the spare liquid with the filter. Finally, the copper mesh was washed with 10 μL of deionized water, which was blotted after staining and drying at room temperature. All of the samples were observed by TEM (Tecnai G2 20 S-TWIN) at an accelerating voltage of 120 kV. […]

Where [1] appears, read: self-assembled in water, 20 μM, without sSema4D.

Take “C16‐FFVLK‐KNKAAKG [SSP-2, smart supramolecular peptide, C16‐FFVLK‐KNKAAKG, self-assembling, captures sSema4D]”: the “morphology after incubation with sSema4D” value is on record as “long‐size of nanofibrillar structures”. In addition, the “average length of nanorods” value under setting [1] turned out to be 190 ± 23.9 nm.
On to “C16‐FFVLK‐KQKRPRH [SSP-1, smart supramolecular peptide, C16‐FFVLK‐KQKRPRH, self-assembling, captures sSema4D]”, for which the “morphology after incubation with sSema4D” value was “dense NFs network structures”. Besides, the “average size of NPs” value under setting [1] was found to be 44.8 ± 2.9 nm.
